Measurements as given in article PMC12469161, “Anti-cancer compound screening identifies Aurora Kinase A inhibition as a means to favor CRISPR/Cas9 gene correction over knock-out” (PLOS One, 2025).

Legend:
[1] = system: HEK293T-eGFP cells; test: MTT cytotoxicity assay, 72 hours; assay type: cell-based; settings: 0.1 µM, MTT toxicity curve (S2 Fig), two days after treatment
[2] = system: eGFP locus in Hepa 1–6-eGFP cells (HDR vs NHEJ); test: CRISPR gene-editing outcome (eGFP to BFP, flow cytometry) with ProDeliverIN CRISPR; assay type: cell-based, murine; settings: for dosage with overall high efficacy and manageable toxicity: Hepa 1–6-eGFP
Description: Lipid nanoparticles (LNP) carrying SpCas9, sgRNA and HDR template DNA were formulated using the components and molecular ratios described previously. 1,1′-((2-(4-(2-((2-(bis(2-hydroxydodecyl)amino)ethyl)(2-hydroxydodecyl)amino)ethyl)piperazin-1-yl)ethyl)azanediyl)bis(dodecan-2-ol) (C12-200) was acquired from CordonPharma (Plankstadt, Germany) and used as the ionizable lipid in the formulation. 1,2-dioleoyl-sn-glycero-3-phosphoethanolamine (DOPE) was acquired from Lipoid GmbH (Steinhausen, Switzerland), Cholesterol and 1,2-dimyristoyl-rac-glycero-3-methoxypolyethylene glycol-2000 (PEG-DMG) were acquired from Sigma-Aldrich, and 1,2-dioleoyl-3-trimethylammonium-propane (DOTAP) was acquired from Merck (Darmstadt, Germany). LNP were produced using microfluidic mixing with the Dolomite Microfluidics system (Dolomite Microfluidics, Royston, United Kingdom) and herring-bone micromixer chip with hydrophilic coating (Dolomite Microfluidics, catalogue number 3200401). A total flow rate of 1.5 mL/min and flow rate ratio of 2:1 were used between an aqueous outer phase containing SpCas9, sgRNA and HDR template in nuclease free water, and the lipids in 100% ethanol in the inner phase, respectively. The resulting LNP were diluted 4 times in Dulbecco’s PBS (Sigma-Aldrich). In the experiments using the Hepa 1–6 eGFP cells, ProDeliverIN CRISPR (OZ Biosciences, San Diego, USA) was used as reported previously.
(§1) Compounds were assessed in three dosages to assess the effects on gene-editing efficacy. […] Cells were incubated with these compounds for 24 hours prior to LNP addition. LNP were added to all wells at a final concentration of 20 nM SpCas9 to achieve robust genome editing. After 24 hours of co-incubation, medium was refreshed and cells were transferred to a 48 well plate for further culturing. Six days after adding compounds, cells were processed for flow cytometric analysis of the gene knock-out and gene-correction efficiencies. Briefly, a ssDNA template was used carrying two nucleotide mutations to convert the eGFP sequence to that of a blue fluorescent protein (BFP), as well as mutating the PAM sequence to ensure robust HDR. The sgRNA spacer sequence was 5’-[…]-3’, and the HDR template sequence was 5’-[…]-3’.
Flow cytometry using the BD FACS Canto II (Becton Dickinson) was used to determine cells undergoing NHEJ (eGFP and BFP negative population) and HDR (eGFP negative, BFP positive). […]
(§2) The percentage of HDR relative to total gene editing in a given cell population (hereafter named Relative HDR (% of edited cells) was calculated by dividing the absolute HDR population by the sum of gene-edited cells found in the BFP+ and eGFP- gates. Absolute HDR (% of all cells) and Absolute NHEJ (% of all cells) were analyzed where appropriate. The gating strategy is given in S1 Fig in S1 File.

[3] = system: eGFP locus in HEK293T-eGFP cells (HDR vs NHEJ); test: CRISPR gene-editing outcome (eGFP to BFP conversion, flow cytometry) with CRISPR-Cas9 LNP; assay type: cell-based
Protocol: as §1
Flow cytometry using the BD FACS Canto II (Becton Dickinson) was used to determine cells undergoing NHEJ (eGFP and BFP negative population) and HDR (eGFP negative, BFP positive). Data analysis was performed using Flowlogic (version 8.7). Graphpad PRISM (version 9.3.1) was used for statistical analysis and preparing graphs.
as §2

[4] = system: PCSK9 locus in Hepa 1–6 cells; test: PCSK9 genome editing, Sanger sequencing and TIDER; assay type: cell-based, murine; settings: TIDER, 0.3 µM
Protocol: Transfection mixtures were prepared to deliver 30 nM RNP (and where applicable 60 nM HDR template DNA) respectively using the commercial ProdeliverIN CRISPR kit. Following this, the cells were incubated for an additional 48h followed by cell lysis and DNA purification using the DNeasy Blood and Tissue kit (Qiagen, Venlo, The Netherlands) using the manufacturers protocol for cell line lysis. Subsequently, PCR was done using the primer set in S1 Table using the Phusion Hotstart Dna Polymerase (Thermo Fischer Scientific) and the recommended thermocycle conditions and PCR mix by the manufacturer. PCR products were purified using the GeneJET PCR Purification Kit (Thermo Fischer Scientific) and finally prepared for Sanger sequencing performed by Macrogen (Amsterdam, The Netherlands. Data was analyzed using the TIDER software package available at http://shinyapps.datacurators.nl/tider/ using an untreated sequencing plot as control chromatogram and a dsDNA gBlock (Integrated DNA Technologies) containing the desired mutation as reference chromatogram. Total gene editing and HDR were analyzed for S7 Figure.

[5] = system: HEK293T-eGFP cells; test: MTT cytotoxicity assay, 72 hours; assay type: cell-based; settings: 72 h; HEK293T-eGFP cells, 3 days of incubation, MTT; read-out: IC50
Protocol: Cells were cultured for 16–24 hours under standard culturing conditions (5% CO2, 37 °C). […] All dose ranges were added in duplicate, followed by 72 hours of incubation. Cell viability was determined using a tetrazolium based metabolic activity assay. Briefly, 5 µL of 3-(4.5-dimethylthiazol-2-yl)-2,5-diphenyltetrazolium bromide (MTT) solution (5 mg/mL MTT in sterile PBS) was added per well, and the microplates were incubated for 4 hours at 37°C and 5% CO2 in a cell culture incubator. Next, 40 µL of 10% SDS/0.01 M HCl was added per well, and the microplates were incubated for 24–72 hours at 37°C and 5% CO2 in a cell culture incubator. Subsequently the absorbance at 570 nm and background absorbance at 720 nm were measured using the Spectramax i3x (Molecular Devices, San Jose, USA). Subsequently, the absorbance values at 720 nm were subtracted from the absorbance values at 570 nm, and the corresponding values were used to plot dose-response curves.
The data was normalized to the DMSO-treated cells (defined as 100% viability) and the empty controls (defined as 0% viability).

[6] = system: HEK293T cells; test: MTS time-resolved cytotoxicity and morphology; assay type: cell-based
Protocol: (§3) A narrower cytotoxicity range was determined by exposing cells to 0.1–1 µM of the tested compounds. 48 hours after treatment started, cells were washed and harvested using medium and one third of the volume was transferred to a fresh 96 well plate, analogous to how cells are treated during gene editing experiments. Subsequently, cells were cultured for another 3–5 days. In the case of 5 days, one third of the cells was again transferred into a fresh 96-well plate on day 3 to allow enough space for logarithmic cell growth during the additional incubation time. Cell viability was determined by the Promega One Step MTS assay (Promega, Madison, USA) using the manufacturer’s specifications. Relative cell viability for the Hepa 1–6-eGFP cells was calculated by normalizing the compound conditions to controls treated with DMSO only or DMSO plus gene editing formulations. For the HEK293T cells, the absolute absorbance at […] was used as it was more representative of the relative cell viability between samples.
(§4) Cell morphology was assessed using the Nikon Eclipse Ti2 microscope (Nikon Europe, Amstelveen, The Netherlands). Pictures were acquired at 10x magnification with a Nikon DSLR 10 camera using the same imaging settings within each experiment set (Nikon Europe, Amstelveen, The Netherlands).

[7] = MTS cell viability and morphology, 5 days; assay type: cell-based, murine; settings: mouse, Hepa 1–6-eGFP cells; 0.3 µM, MTS 5 days after start of treatment; read-out: relative cell viability
Protocol: as §3, §4

[8] = system: Hepa 1–6-eGFP cells; test: MTS cell viability and morphology, 5 days; assay type: cell-based, murine; settings: for cell morphology by microscopy: 0.3 µM, after 5 days, vs untreated control
Protocol: as §3, §4

[9] = system: primary murine hepatocytes; test: MTT cytotoxicity on primary hepatocytes; assay type: cell-based, murine (Ai9 mice); settings: for IC50: Mus musculus, Hepatocyte
Protocol: Primary murine hepatocytes were harvested from Ai9 mice and cultured in 2D prior to transfection as previously reported. […] Toxicity was measured at this timepoint, and 72 hours later,. Cell viability was calculated by subtracting a medium blank from the absorption, and dividing the absorption by that of a vehicle-only control.

[10] = system: AURKA; design: method as in manufacturer; settings: ref manufacturer; cited from earlier work
[11] = system: AURKB; design: method as in manufacturer; settings: ref manufacturer; cited from earlier work

COc1cc(Nc2ncc3c(n2)-c2ccc(Cl)cc2C(c2c(F)cccc2OC)=NC3)ccc1C(=O)O [Alisertib]
loss of cell viability [1]: 20% | increase in preferential gene correction over gene knock-out ([2]; Hepa 1–6, eGFP locus, sub-micromolar dosages): over 4 fold | dosage with overall high efficacy and manageable toxicity [2]: 0.3 µM | increase in preferential gene correction over gene knock-out ([3]; HEK293T, eGFP locus, sub-micromolar dosages): over 4 fold | lowest effective concentration for preferential HDR activation ([3]; HEK293T-eGFP cells, narrow dose range): 0.3 µM | preferential activation of HDR over NHEJ in hit validation ([3]; narrowed dose range, triplicate, vs LNP only): strong dose-dependent preferential activation of HDR over NHEJ | effect on the NHEJ and HDR outcomes ([3]; validated hits, Fig 2B): inhibited NHEJ and improved HDR | HDR at the PCSK9 locus [4]: measurable only when alisertib was present | IC50 [5]: > 10 µM | toxicity at different incubation times ([6]; MTS, total incubation time varied (S5 Fig A)): did not vary significantly | cell viability by MTS ([6]; after 2 days): not affected | cell viability by MTS ([6]; after 5 days): dose-dependent decrease in cell viability | metabolic activity and confluency ([6]; seven days after treatment started, at least 0.3 µM): very low metabolic activity and confluency | viability at 5 days, 0.3 µM [7]: 37% | cell morphology by microscopy [8]: did not change as drastically | IC50 ([9]; 48h after exposure): 32.7 µM | IC50 ([9]; 120h after exposure (48h incubation)): 54.8 µM | toxicity (order of) ([9]; primary murine hepatocytes, both timepoints): 30 to 50 µM

CC(=O)NCC(=O)N1[C@@H]2CC[C@H]1c1ccc(Nc3ncc(C(F)(F)F)c(NC4CCC4)n3)cc12 [PF-03814735]
dosage with overall high efficacy and manageable toxicity [2]: 0.2 µM | IC50 [10]: […] | IC50 [11]: 0.0005 µM | cell morphology by microscopy [8]: did not change as drastically | comparative cytotoxicity of the aurora kinase inhibitors ([8]; Hepa 1–6-eGFP): clearly more drastic toxicity
